Test results from US20250163022A1, “PARP1 INHIBITORS” (Synnovation Therapeutics, Inc., priority 2021, published 2025).

Target: T1, PARP1 (Homo sapiens, UniProt P09874)
T1 construct: HeLa cells (wide-type with PARP1 gene) were purchased from ATCC; host or cells: HeLa (wild type)
Experiment: In-Cell Western measurement of PARylation in PARP1 WT and knockout cells
Format: cell-based
Conditions: HeLa cells (wide-type with PARP1 gene); hydrogen peroxide-induced PARylation; compounds 30 min, then 10 mM hydrogen peroxide 15 min; read-out: HeLa_WT_IC50
In short: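 Wild-type and PARP1-knockout HEK-293T and HAP1 cells, plus HeLa, pretreated with compound 30 min, then stimulated with 10 mM hydrogen peroxide for 15 min. Methanol-fixed cells immunostained for PARylation and imaged by In-Cell Western with infrared secondary antibody; IC50 fitted from signal.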

T1 sequence (P09874 whole entry): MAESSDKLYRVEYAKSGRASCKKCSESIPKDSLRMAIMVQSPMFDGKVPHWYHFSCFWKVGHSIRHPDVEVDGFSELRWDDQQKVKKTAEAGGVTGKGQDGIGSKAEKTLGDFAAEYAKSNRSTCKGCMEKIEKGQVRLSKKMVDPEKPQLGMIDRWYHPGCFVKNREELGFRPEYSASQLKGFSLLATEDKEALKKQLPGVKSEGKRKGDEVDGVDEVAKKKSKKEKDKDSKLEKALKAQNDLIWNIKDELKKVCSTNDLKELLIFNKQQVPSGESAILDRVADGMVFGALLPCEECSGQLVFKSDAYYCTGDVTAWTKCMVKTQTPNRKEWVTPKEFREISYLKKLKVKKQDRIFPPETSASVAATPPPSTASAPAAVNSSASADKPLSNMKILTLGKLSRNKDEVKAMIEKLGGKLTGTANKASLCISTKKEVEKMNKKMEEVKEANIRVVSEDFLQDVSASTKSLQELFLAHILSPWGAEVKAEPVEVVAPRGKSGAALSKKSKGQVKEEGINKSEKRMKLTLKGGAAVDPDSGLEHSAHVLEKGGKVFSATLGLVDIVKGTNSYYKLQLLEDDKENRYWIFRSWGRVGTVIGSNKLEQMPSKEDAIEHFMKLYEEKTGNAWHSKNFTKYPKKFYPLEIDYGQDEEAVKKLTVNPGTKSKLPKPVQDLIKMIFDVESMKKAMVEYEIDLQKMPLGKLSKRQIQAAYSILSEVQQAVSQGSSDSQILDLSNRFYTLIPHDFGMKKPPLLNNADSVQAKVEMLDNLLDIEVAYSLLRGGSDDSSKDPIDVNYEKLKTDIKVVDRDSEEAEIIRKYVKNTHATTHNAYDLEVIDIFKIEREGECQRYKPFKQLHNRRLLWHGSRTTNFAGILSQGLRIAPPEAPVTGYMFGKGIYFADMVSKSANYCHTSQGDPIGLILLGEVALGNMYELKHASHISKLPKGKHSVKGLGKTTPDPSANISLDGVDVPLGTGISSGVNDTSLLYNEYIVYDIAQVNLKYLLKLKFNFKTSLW

SMILES	IC50 [µM]
CCN1C(=O)Nc2c(F)c(CN3CCN(c4ccc(C(=O)NC5CC5)c(F)c4F)CC3)cc3ncnc1c23 [Compound I-90, N-cyclopropyl-4-(4-((3-ethyl-9-fluoro-2-oxo-2,3-dihydro-1H-pyrimido[4,5,6-de]quinazolin-8-yl)methyl)piperazin-1-yl)-2,3-difluorobenzamide]	≤ 0.01
CCN1C(=O)Nc2c(F)c(CN3CCN(c4ccc(C(=O)NC5(CC#N)CC5)c(F)c4F)CC3)cc3ncnc1c23 [Compound I-95, N-(1-(cyanomethyl)cyclopropyl)-4-(4-((3-ethyl-9-fluoro-2-oxo-2,3-dihydro-1H-pyrimido[4,5,6-de]quinazolin-8-yl)methyl)piperazin-1-yl)-2,3-difluorobenzamide]	0.01 to 0.1
CCN1C(=O)Nc2c(F)c(CN3CCN(c4ccc(C(=O)NC5CCC5)nc4C)CC3)cc3ncnc1c23 [Compound I-96, N-cyclobutyl-5-(4-((3-ethyl-9-fluoro-2-oxo-2,3-dihydro-1H-pyrimido[4,5,6-de]quinazolin-8-yl)methyl)piperazin-1-yl)-6-methylpicolinamide]	≤ 0.01

Continued, values first:

IC50 [µM]	SMILES
≤ 0.01	CCN1C(=O)Nc2c(F)c(CN3CCN(c4ccc(C(=O)NC5(CC#N)CC5)cc4C)CC3)cc3ncnc1c23 [Compound I-93, N-(1-(cyanomethyl)cyclopropyl)-4-(4-((3-ethyl-9-fluoro-2-oxo-2,3-dihydro-1H-pyrimido[4,5,6-de]quinazolin-8-yl)methyl)piperazin-1-yl)-3-methylbenzamide]
≤ 0.01	CCN1C(=O)Nc2c(F)c(CN3CCN(c4ccc(C(=O)NC5(CC#N)CC5)cc4F)CC3)cc3ncnc1c23 [Compound I-94, N-(1-(cyanomethyl)cyclopropyl)-4-(4-((3-ethyl-9-fluoro-2-oxo-2,3-dihydro-1H-pyrimido[4,5,6-de]quinazolin-8-yl)methyl)piperazin-1-yl)-3-fluorobenzamide]
